Tested on: EntC1
Assay: ITC, EntC1
Format: binding
Conditions: titration of EntC2 with EntC1

## CC[C@H](C)[C@H](NC(=O)CNC(=O)[C@H](CCCCN)NC(=O)[C@H](C)NC(=O)[C@H](CC(C)C)NC(=O)CNC(=O)[C@H](C)NC(=O)[C@@H](NC(=O)[C@H](Cc1ccccc1)NC(=O)[C@H](CC(=O)O)NC(=O)[C@H](Cc1ccc(O)cc1)NC(=O)[C@H](C)NC(=O)[C@@H]1CCCN1C(=O)[C@H](CCC(N)=O)NC(=O)[C@H](CC(C)C)NC(=O)[C@H](Cc1c[nH]c2ccccc12)NC(=O)[C@@H]1CCCN1C(=O)[C@H](CC(C)C)NC(=O)[C@H](Cc1c[nH]c2ccccc12)NC(=O)[C@H](CCCCN)NC(=O)CNC(=O)[C@@H]1CCCN1C(=O)CN)C(C)C)C(=O)NCC(=O)N[C@@H](CCCCN)C(=O)N[C@@H](CCC(=O)O)C(=O)NCC(=O)N[C@@H](CC(N)=O)C(=O)N[C@@H](CCCCN)C(=O)N[C@@H](CC(N)=O)C(=O)N[C@@H](CCCCN)C(=O)N[C@@H](Cc1c[nH]c2ccccc12)C(=O)N[C@@H](CCCCN)C(=O)N[C@@H](CC(N)=O)C(=O)N[C@H](C(=O)O)C(C)C (single isomer, unassigned) [EntC2]
  binding to EntC1 (ITC): No binding

From publication PMC12765074, “Mechanistic insights into enterocin C targeting the undecaprenyl phosphate recycling protein BacA” (The Journal of Biological Chemistry, 2025)
